Columns and labels:
[1] = system: mRNA expressed from the genes (A) to (D) in rat liver; experiment: Behavior of genes (mRNA expression level, oligo-DNA microarray) in rat liver after 28-day oral administration; type: in vivo
Outline: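 Oral gavage, once daily × 28 days; male F344 SPF rats, 5 wk, n=4/group; vehicle controls given equal solvent volume. Liver excised day 28, total RNA purified. Significance: ≥1.5× or ≤1/1.5 of vehicle, direction concordant with other carcinogens.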

liver = settings: in vivo; cited from earlier work
rodent = settings: in vivo; cited from earlier work
[2] = gene group (A), Unigene No. Rn.167075
[3] = gene group (C), Unigene No. Rn.120914
[4] = (C), Unigene Rn.120914, defined direction +, rat liver, oral once daily 28 days

OCCCl [TS032, 2-Chloroethanol]
Behavior of gene caused by administration of chemical substance, Gene No. 154 ([1]; rat, in vivo): − | Behavior of gene caused by administration of chemical substance, Gene No. 533 ([1]; rat, in vivo): − | Behavior of gene caused by administration of chemical substance, Gene No. 725 ([1]; rat, in vivo): − | Behavior of gene caused by administration of chemical substance, Gene No. 813 ([1]; rat, in vivo): − | Behavior of gene caused by administration of chemical substance, Gene No. 893 ([1]; rat, in vivo): − | Behavior of gene caused by administration of chemical substance, Gene No. 1119 ([1]; rat, in vivo): − | Behavior of gene caused by administration of chemical substance, Gene No. 1131 ([1]; rat, in vivo): − | Behavior of gene caused by administration of chemical substance, Gene No. 1163 ([1]; rat, in vivo): − | Behavior of gene caused by administration of chemical substance, Gene No. 1334 ([1]; rat, in vivo): − | Behavior of gene caused by administration of chemical substance, Gene No. 1494 ([1]; rat, in vivo): − | Behavior of gene caused by administration of chemical substance, Gene No. 1562 ([1]; rat, in vivo): − | Behavior of gene caused by administration of chemical substance, Gene No. 1741 ([1]; rat, in vivo): − | Behavior of gene caused by administration of chemical substance, Gene No. 1993 ([1]; rat, in vivo): − | Behavior of gene caused by administration of chemical substance, Gene No. 2026 ([1]; rat, in vivo): − | Behavior of gene caused by administration of chemical substance, Gene No. 2045 ([1]; rat, in vivo): − | Behavior of gene caused by administration of chemical substance, Gene No. 2203 ([1]; rat, in vivo): − | Behavior of gene caused by administration of chemical substance, Gene No. 2494 ([1]; rat, in vivo): − | Behavior of gene caused by administration of chemical substance, Gene No. 2546 ([1]; rat, in vivo): − | Behavior of gene caused by administration of chemical substance, Gene No. 3776 ([1]; rat, in vivo): − | Behavior of gene caused by administration of chemical substance, Gene No. 3929 ([1]; rat, in vivo): − | Behavior of gene caused by administration of chemical substance, Gene No. 4095 ([1]; rat, in vivo): − | Behavior of gene caused by administration of chemical substance, Gene No. 4218 ([1]; rat, in vivo): − | Behavior of gene caused by administration of chemical substance, Gene No. 4846 ([1]; rat, in vivo): − | Behavior of gene caused by administration of chemical substance, Gene No. 4973 ([1]; rat, in vivo): − | Behavior of gene caused by administration of chemical substance, Gene No. 5600 ([1]; rat, in vivo): − | Behavior of gene caused by administration of chemical substance, Gene No. 5634 ([1]; rat, in vivo): − | Behavior of gene caused by administration of chemical substance, Gene No. 5726 ([1]; rat, in vivo): − | Behavior of gene caused by administration of chemical substance, Gene No. 5878 ([1]; rat, in vivo): − | Behavior of gene caused by administration of chemical substance, Gene No. 6026 ([1]; rat, in vivo): − | Behavior of gene caused by administration of chemical substance, Gene No. 6182 ([1]; rat, in vivo): − | Behavior of gene caused by administration of chemical substance, Gene No. 6303 ([1]; rat, in vivo): − | Behavior of gene caused by administration of chemical substance, Gene No. 6620 ([1]; rat, in vivo): − | Behavior of gene caused by administration of chemical substance, Gene No. 6742 ([1]; rat, in vivo): − | Liver carcinogenicity (liver): Cr− | Carcinogenicity (rodent): C−

CCC[N+](=O)[O-] [TS036, 1-Nitropropane]
Behavior of gene caused by administration of chemical substance, Gene No. 4846 ([1]; gene group (A), Unigene No. Rn.144554): − | Behavior of gene caused by administration of chemical substance, Gene No. 2026 [1, 2]: − | Behavior of gene caused by administration of chemical substance, Gene No. 4218 [1, 2]: − | Behavior of gene caused by administration of chemical substance, Gene No. 6182 ([1]; gene group (A), Unigene No. Rn.5834): − | Behavior of gene caused by administration of chemical substance, Gene No. 5600 ([1]; gene group (A), Unigene No. Rn.9836): − | Behavior of gene caused by administration of chemical substance, Gene No. 1494 ([1]; gene group (B), Unigene No. Rn.1430): − | Behavior of gene caused by administration of chemical substance, Gene No. 2045 ([1]; gene group (B), Unigene No. Rn.19329): − | Behavior of gene caused by administration of chemical substance, Gene No. 2203 ([1]; gene group (B), Unigene No. Rn.21240): − | Behavior of gene caused by administration of chemical substance, Gene No. 533 ([1]; gene group (C), Unigene No. Rn.106184): − | Behavior of gene caused by administration of chemical substance, Gene No. 725 ([1]; gene group (C), Unigene No. Rn.108075): + | Behavior of gene caused by administration of chemical substance, Gene No. 1163 ([1]; gene group (C), Unigene No. Rn.11766): − | Behavior of gene caused by administration of chemical substance, Gene No. 4973 ([1]; gene group (C), Unigene No. Rn.118529): + | Behavior of gene caused by administration of chemical substance, Gene No. 4095 ([1]; gene group (C), Unigene No. Rn.119024): + | Behavior of gene caused by administration of chemical substance, Gene No. 1334 [1, 3]: − | Behavior of gene caused by administration of chemical substance, Gene No. 6620 [1, 3]: − | Behavior of gene caused by administration of chemical substance, Gene No. 6303 ([1]; gene group (C), Unigene No. Rn.123063): − | Behavior of gene caused by administration of chemical substance, Gene No. 5878 ([1]; gene group (C), Unigene No. Rn.143213): + | Behavior of gene caused by administration of chemical substance, Gene No. 1131 ([1]; gene group (C), Unigene No. Rn.144946): + | Behavior of gene caused by administration of chemical substance, Gene No. 1562 ([1]; gene group (C), Unigene No. Rn.14744): + | Behavior of gene caused by administration of chemical substance, Gene No. 1741 ([1]; gene group (C), Unigene No. Rn.1647): + | Behavior of gene caused by administration of chemical substance, Gene No. 893 ([1]; gene group (C), Unigene No. Rn.164817): + | Behavior of gene caused by administration of chemical substance, Gene No. 6026 ([1]; gene group (C), Unigene No. Rn.167685): − | Behavior of gene caused by administration of chemical substance, Gene No. 154 ([1]; gene group (C), Unigene No. Rn.185941): + | Behavior of gene caused by administration of chemical substance, Gene No. 1993 ([1]; gene group (C), Unigene No. Rn.18728): + | Behavior of gene caused by administration of chemical substance, Gene No. 813 ([1]; gene group (C), Unigene No. Rn.201760): − | Behavior of gene caused by administration of chemical substance, Gene No. 2494 ([1]; gene group (C), Unigene No. Rn.23969): − | Behavior of gene caused by administration of chemical substance, Gene No. 2546 ([1]; gene group (C), Unigene No. Rn.24561): + | Behavior of gene caused by administration of chemical substance, Gene No. 3776 ([1]; gene group (C), Unigene No. Rn.43232): + | Behavior of gene caused by administration of chemical substance, Gene No. 3929 ([1]; gene group (C), Unigene No. Rn.4620): + | Behavior of gene caused by administration of chemical substance, Gene No. 1119 ([1]; gene group (C), Unigene No. Rn.9757): + | Behavior of gene caused by administration of chemical substance, Gene No. 6742 ([1]; gene group (C), Unigene No. Rn.9779): − | Behavior of gene caused by administration of chemical substance, Gene No. 5634 ([1]; gene group (C), Unigene No. Rn.9862): − | Behavior of gene caused by administration of chemical substance, Gene No. 5726 ([1]; gene group (D), Unigene No. Rn.9939): − | Liver carcinogenicity (liver): Cr− | Carcinogenicity (rodent): C−

CN(C)N=O [TS041, N-Nitrosodimethylamine]
Behavior of gene caused by administration of chemical substance, Gene No. 4846 ([1]; (A), Unigene Rn.144554, defined direction +, rat liver, oral once daily 28 days): + | Behavior of gene caused by administration of chemical substance, Gene No. 4218 ([1]; (A), Unigene Rn.167075, defined direction +, rat liver, oral once daily 28 days, significant = 1.5 times or more or 1/1.5 or less of control): + | Behavior of gene caused by administration of chemical substance, Gene No. 2026 ([1]; (A), Unigene Rn.167075, defined direction −, rat liver, oral once daily 28 days): − | Behavior of gene caused by administration of chemical substance, Gene No. 6182 ([1]; (A), Unigene Rn.5834, defined direction +, rat liver, oral once daily 28 days): + | Behavior of gene caused by administration of chemical substance, Gene No. 5600 ([1]; (A), Unigene Rn.9836, defined direction +, rat liver, oral once daily 28 days): + | Behavior of gene caused by administration of chemical substance, Gene No. 1494 ([1]; (B), Unigene Rn.1430, defined direction −, rat liver, oral once daily 28 days): − | Behavior of gene caused by administration of chemical substance, Gene No. 2045 ([1]; (B), Unigene Rn.19329, defined direction +, rat liver, oral once daily 28 days): − | Behavior of gene caused by administration of chemical substance, Gene No. 2203 ([1]; (B), Unigene Rn.21240, defined direction +, rat liver, oral once daily 28 days): − | Behavior of gene caused by administration of chemical substance, Gene No. 533 ([1]; (C), Unigene Rn.106184, defined direction +, rat liver, oral once daily 28 days): − | Behavior of gene caused by administration of chemical substance, Gene No. 725 ([1]; (C), Unigene Rn.108075, defined direction −, rat liver, oral once daily 28 days): − | Behavior of gene caused by administration of chemical substance, Gene No. 1163 ([1]; (C), Unigene Rn.11766, defined direction +, rat liver, oral once daily 28 days): − | Behavior of gene caused by administration of chemical substance, Gene No. 4973 ([1]; (C), Unigene Rn.118529, defined direction −, rat liver, oral once daily 28 days): − | Behavior of gene caused by administration of chemical substance, Gene No. 4095 ([1]; (C), Unigene Rn.119024, defined direction −, rat liver, oral once daily 28 days): − | Behavior of gene caused by administration of chemical substance, Gene No. 1334 [1, 4]: − | Behavior of gene caused by administration of chemical substance, Gene No. 6620 [1, 4]: − | Behavior of gene caused by administration of chemical substance, Gene No. 6303 ([1]; (C), Unigene Rn.123063, defined direction −, rat liver, oral once daily 28 days): − | Behavior of gene caused by administration of chemical substance, Gene No. 5878 ([1]; (C), Unigene Rn.143213, defined direction −, rat liver, oral once daily 28 days): − | Behavior of gene caused by administration of chemical substance, Gene No. 1131 ([1]; (C), Unigene Rn.144946, defined direction −, rat liver, oral once daily 28 days): − | Behavior of gene caused by administration of chemical substance, Gene No. 1562 ([1]; (C), Unigene Rn.14744, defined direction −, rat liver, oral once daily 28 days): − | Behavior of gene caused by administration of chemical substance, Gene No. 1741 ([1]; (C), Unigene Rn.1647, defined direction −, rat liver, oral once daily 28 days): − | Behavior of gene caused by administration of chemical substance, Gene No. 893 ([1]; (C), Unigene Rn.164817, defined direction +, rat liver, oral once daily 28 days): − | Behavior of gene caused by administration of chemical substance, Gene No. 6026 ([1]; (C), Unigene Rn.167685, defined direction −, rat liver, oral once daily 28 days): − | Behavior of gene caused by administration of chemical substance, Gene No. 154 ([1]; (C), Unigene Rn.185941, defined direction −, rat liver, oral once daily 28 days): − | Behavior of gene caused by administration of chemical substance, Gene No. 1993 ([1]; (C), Unigene Rn.18728, defined direction −, rat liver, oral once daily 28 days): − | Behavior of gene caused by administration of chemical substance, Gene No. 813 ([1]; (C), Unigene Rn.201760, defined direction +, rat liver, oral once daily 28 days): − | Behavior of gene caused by administration of chemical substance, Gene No. 2494 ([1]; (C), Unigene Rn.23969, defined direction +, rat liver, oral once daily 28 days): − | Behavior of gene caused by administration of chemical substance, Gene No. 2546 ([1]; (C), Unigene Rn.24561, defined direction −, rat liver, oral once daily 28 days): − | Behavior of gene caused by administration of chemical substance, Gene No. 3776 ([1]; (C), Unigene Rn.43232, defined direction −, rat liver, oral once daily 28 days): − | Behavior of gene caused by administration of chemical substance, Gene No. 3929 ([1]; (C), Unigene Rn.4620, defined direction +, rat liver, oral once daily 28 days): − | Behavior of gene caused by administration of chemical substance, Gene No. 1119 ([1]; (C), Unigene Rn.9757, defined direction +, rat liver, oral once daily 28 days): − | Behavior of gene caused by administration of chemical substance, Gene No. 6742 ([1]; (C), Unigene Rn.9779, defined direction +, rat liver, oral once daily 28 days): + | Behavior of gene caused by administration of chemical substance, Gene No. 5634 ([1]; (C), Unigene Rn.9862, defined direction −, rat liver, oral once daily 28 days): − | Behavior of gene caused by administration of chemical substance, Gene No. 5726 ([1]; (D), Unigene Rn.9939, defined direction −, rat liver, oral once daily 28 days): − | Liver carcinogenicity (liver): Cr+ | Carcinogenicity (rodent): C+
